The values that follow come from patent US20120321584A1, “PROCESSES FOR PREPARING AMINE SALTS OF KMUP-3 AND USE THEREOF” (KAOHSIUNG MEDICAL UNIVERSITY, priority 2011, published 2012).

Test [1] in a line: Hemodynamic measurements in anesthetized rats (LVSP, dP/dt, MABP, HR). Format: in vivo, Wistar rats. The protocol: Hemodynamic measurements were carried out in male Wistar rats weighting 300˜350 g, anesthetized with pentobarbital sodium (40 mg kg^−1, i.p.). In brief, polyethylene tubing (PE50) was placed in the trachea to keep the airway patent, and rats continued to breathe spontaneously. Subsequently, rats were used to record hemodynamic and cardiovascular function. Vascular catheters (PE50) were placed in the femoral arteries to measure mean arterial blood pressure (MABP) and heart rate (HR). Changes of MABP and HR caused by KMUP-3 or KMUP-3 amine salt were recorded from the femoral artery with a pressure transducer (Gould, Model P50, U.S.A.), connected with a Pressure Processor Amplifier (Gould, Model 13-4615-52, U.S.A.). A femoral vein was used for intravenous administration of KMUP-3 or KMUP-3 amine salt. A specialized transducer tip catheter was placed in the right carotid artery and advanced into the left ventricle of the heart for measurement of left ventricular pressure (LVSP) or contractility; dP/dt at 50 mm Hg, an index of cardiac contractility, was derived from the left ventricular pressure trace; post-hoc vascular resistance was calculated as mean arterial blood pressure/peripheral cardiac output (MABP/PCO). Body temperature was monitored throughout the experiment and maintained between 37 and 37.5° C. by using a heating pad.
Each dose of active drugs was administered as a 20-min infusion in a series of escalating doses dissolved in a 5% dextrose water vehicle. […] KMUP-3 HCl or KMUP-3 amine salt were infused at 0.03, 0.05, and 0.075 μg/kg/20 min for the measurement of FABP, intraperitoneally injected at 0.03, 0.05 and 0.1 mg/kg for the measurement of MABP and HR and infused by intravenous injection for 2 min at 0.5, 1.0, 3.0 mg/kg dissolved in 5% dextrose water vehicle (2 ml) for the measurement of LV systolic pressure (LVSH), ABP, dP/dt, and HR. The primary hemodynamic variables were computed using commercial software and a signal processing workstation. Animals were randomly divided into one of six treatment or vehicle groups. After the completion of the surgical protocol, animals were allowed to stabilize for 1 h, and baseline data were collected at 5-min intervals for 30 min before the treatment.

The test system of test [2] is electrically-stimulated left atria. As to the kind of experiment: Electrically-stimulated beating left atrium, organ bath. The test is classed as cell-based, guinea-pig. The protocol: Organ bath experiments and tissue procurement. Guinea-pigs were killed by a blow on the head. Their hearts were quickly excised and trimmed of excess tissues. The atrium was carefully removed and placed at room temperature (20˜25° C.) in a Krebs solution of the following composition (mM): NaCl 113, KCl 4.8, CaCl2 2.2, KH2PO4 1.2, MgCl2 1.2, NaHCO3 25, dextrose 11.0; bubbled with a 95% O2+5% CO2 mixture, followed by separation of right and left atrium for subsequent experiments.
Quiescent left atria free of connective tissues were dissected and mounted in an organ bath under a resting tension of 0.5 g. Organs were bathed at 32.5° C. in aerated Krebs solution and electrically stimulated with 1 Hz at […] via two platinum electrodes placed at either side. The positive inotropic effect was measured by determining the cumulative concentration-response curves in the presence of KMUP-3 or KMUP-3 amine salt (0.1, 1.0, 10, 100 μM). To examine the possible involvement of NO and cAMP/cGMP in the action of KMUP-3 or KMUP-3 amine salt on electrically-stimulated beating atria, pre-incubated with a ROCK inhibitor Y27632 (1.0 μM), a β-adrenoceptor blocker propranolol (1.0 μM), eNOS inhibitors L-NAME (100 μM), 7-nitroindazole (100 μM) and 5-HT inhibitor ketanserin (1.0 μM) was performed for 15 min prior to the addition of KMUP-3 or KMUP-3 amine salt to measure the development of beating force and heart rate for 10 min.

Test [3] relates to phosphorylated eNOS (p-eNOS). As to the kind of experiment: Phosphorylated eNOS expression in neonatal myocytes, Western blotting. Format: cell-based, rat. The settings on record: neonatal rat cardiomyocytes. The protocol:
(§1) eNOS/p-NOS and cAMP/cGMP in neonatal myocytes. To determine the role of the NO/cGMP-pathway in heart, neonatal rat myocyte protein was extracted followed by Western blotting to measure the expression of eNOS, phosphorylated eNOS (p-eNOS), cAMP, and cGMP (FIG. 14 A-14 B and FIG. 15 A-15 B). KMUP-3 increased eNOS and p-eNOS in neonatal rat cardiomyocytes and the effect was reduced by L-NAME (100 μM)-pretreatment (FIG. 14A and FIG. 14B). KMUP-3 increased both cAMP and cGMP.
Protein extraction and Western blotting analysis. Briefly, after incubation with test agents in an organ bath, isolated beating atrium was frozen and pulverized to a fine powder at the temperature of liquid nitrogen. Atrium powders were then homogenized in protein extraction reagent (Pierce Biotechnology, Inc., Rockford, Ill.) by sonication. The samples were sonicated 10 sec three times and centrifuged at 13,000 rpm at 4° C. for 30 min. The protein concentrations of supernatants were determined by using bovine serum albumin as the standard. […] The intensity of the bands was measured by densitometry. eNOS or phosphorylated eNOS were extracted from cell culture of neonatal myocytes, PA ring and aortic ring (2-3 mm) of rats and measured by Western blotting analysis.
Background: A western blot detects proteins with antibodies after separation by electrophoresis.

A further test relates to cGMP. As to the kind of experiment: cGMP in neonatal myocytes. Format: cell-based, rat. The protocol: as §1
Another test has as its system L-type Ca2+ channels. As to the kind of experiment: Ca2+ entry currents in H9c2 cells, whole cell patch-clamp. Format: cell-based, rat. The settings on record: H9c2 cells, KMUP-3 1-100 μM.
The mark [4] stands for this setting: anesthetized rats, intravenous injection 0.5-3 mg/kg within 2 min.
Where [5] appears, read: intra-peritoneal injection 0.03-0.1 mg/kg.
[6] abbreviates: intravenous perfusion 0.03-0.075 μg/kg/min×20 min.

Description for L-type Ca2+ channels: To measure the ICa through L-type Ca^2+ channels, whole cell patch-clamp electrophysiology was used in rat heart-derived H9c2 cells as previously described. In brief, H9c2 cells were placed in a recording dish and perfused with a bath solution containing (in mM): 135 tetraethylammonium (TEA)-Cl, 1.8 CaCl2, 2 MgCl2, 10 glucose, and 10 HEPES (pH 7.4, Tris). […] Negative pressure was briefly applied to rupture the membrane and a gigaohm seal was obtained.
H9c2 cells were clamped at −80 mV with step depolarizations (300 ms) from −80 to 0 mV to evoke whole-cell ICa. Voltage clamped cells were equilibrated for 15 min prior to experimentation. Membrane currents were recorded on an Axopatch 700A amplifier (Axon Instruments, Union City, Calif.), filtered at 1 kHz using a low-pass Bessel filter, digitized at 5 kHz and stored on a computer for subsequent analysis with Clampfit 9.0. Following equilibration, ICa was monitored in the presence and absence of KMUP-3 or KMUP-3 amine salt (1, 10, 100 μM). To ascertain whether PKG or ROCK signaling was involved in the KMUP-3-induced decreases in ICa, H9c2 cells were incubated for 15 min with the combination of KMUP-3 or KMUP-3 amine salt (10 μM) and PKG antagonist KT5823 (3 μM) or ROCK inhibitor Y-27632 (50 μM). All electrical recordings were performed at room temperature.

Turning to `Cn1c(=O)c2c(ncn2CCN2CCN(c3ccc([N+](=O)[O-])cc3)CC2)n(C)c1=O` [KMUP-3, 7-[2-[4-(4-nitrobenzene)piperazinyl]ethyl]-1,3-dimethylxanthine], in test [1] (setting [4]), the “LVSP (left ventricular systolic pressure)” value was “dose-dependently increased”, the “MABP (mean arterial blood pressure)” value is “dose-dependently increased” and the dP/dt result was “dose-dependently increased”. In test [1] (setting [5]), the HR result is reported as “dose-dependently increased” and the MABP result is recorded as “dose-dependently increased”. Further, in test [1] (setting [6]), the HR entry is listed as “dose-dependently increased” and the MABP entry is “dose-dependently increased”. Moreover, the Left atria contractility result in test [2] (KMUP-3 10 μM) is listed as “increased”. In addition, the “Potency for increasing contractility compared with milrinone” value in test [2] (electrical stimulation 1 Hz, P<0.05) is “more potent than milrinone”. The p-eNOS expression result in test [3] is given as “increased”. Also, in the test on cGMP, the cGMP entry was “increased” and the “cGMP increase compared with cAMP increase” value is listed as “increased more than the former”. Further, in the test on L-type Ca2+ channels, the “Inward currents (Ca2+ entry)” value is reported as “concentration-dependently reduced”.
